# Experimental data taken from publication PMC5430962, “Retro-inverso Urokinase Receptor Antagonists for the Treatment of Metastatic Sarcomas” (Scientific Reports, 2017).
# [ ]: non-standard residue; d: D form. Aib = CC(C)(N)C(=O)O
# Columns and labels:
# HT1080 cells = test: Matrigel invasion kinetics, xCELLigence RTCA, HT1080; type: cell-based, human
# Experimental: (§1) This assay was performed using E-well plates and the xCELLigence RTCA technology as described. Bottom wells were coated with 20 µg/well matrigel diluted in serum free medium. Matrigel was allowed to polymerize for 1 hr at 37 °C prior to seeding cells (1 × 10^4 cells/well) suspended in growth medium plus/minus RI peptides. Cells that cross matrigel adhere to the bottom of plates causing impedance changes that are proportional to the number of invading cells, and are expressed as a cell index value. Matrigel invasion was monitored for 20 hr. The experiments were performed three times in quadruplicate.
# [1] = tested on: chondrosarcoma Sarc cells; test: Matrigel invasion kinetics, xCELLigence RTCA, Sarc; type: cell-based, human; conditions: 10 nM, 10% FBS, 20 hr
# Experimental: as §1
# FPR1 [2] = target: T1, FPR1 (Homo sapiens, UniProt P21462); test: Ligand binding assay: FITC-fMLF binding to RBL-2H3/ETFR cells; conditions: 100 nM unlabeled peptide 60 min at 4 °C, then 10 nM FITC-fMLF 60 min at 4 °C; fluorescence plate reader
# T1 construct: expressed in transfected cells; host or cells: rat basophilic leukaemia RBL-2H3/ETFR cells (gift of F. Blasi)
# T1 sequence (P21462 1-350): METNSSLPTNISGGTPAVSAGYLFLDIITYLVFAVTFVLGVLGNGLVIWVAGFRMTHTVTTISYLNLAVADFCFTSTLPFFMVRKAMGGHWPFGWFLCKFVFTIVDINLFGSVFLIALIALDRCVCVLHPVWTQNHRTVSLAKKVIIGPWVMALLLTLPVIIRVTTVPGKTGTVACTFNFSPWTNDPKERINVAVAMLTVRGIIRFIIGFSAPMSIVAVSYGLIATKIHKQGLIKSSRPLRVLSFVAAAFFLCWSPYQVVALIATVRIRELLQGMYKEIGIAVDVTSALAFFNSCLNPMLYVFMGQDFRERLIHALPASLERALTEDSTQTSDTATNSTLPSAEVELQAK
# Experimental: RBL-2H3 cells, RBL-2H3/ETFR cells stably expressing FPR1 (1.5 × 10^6 cells/sample) were pre-incubated with diluents or the indicated unlabeled peptides for 60 min at 4 °C, extensively rinsed with phosphate buffer saline (PBS), exposed to 10 nM FITC-fMLF (Molecular Probes) in PBS for additional 60 min at 4 °C and again rinsed with PBS. Cell-associated fluorescence was quantitated with the fluorescence plate reader Victor 3 (Perkin Elmer) using 485 nm excitation and 535 nm emission filters. The experiments were performed three times in triplicate.
# FPR1 [3] = target: T1, FPR1; test: Agonist-dependent FPR1 internalization, fluorescence microscopy in RBL-2H3/ETFR cells; type: cell-based; conditions: 100 nM peptide 30 min at 37 °C, then 10 nM FITC-fMLF 30 min at 37 °C; confocal microscopy
# Experimental: Cells grown on glass slides to semi-confluence were exposed to diluents or the indicated unlabeled peptides for 30 min at 37 °C, then to 10 nM FITC-fMLF in PBS for additional 30 min at 37 °C and extensively rinsed with PBS. To visualize the cytoskeleton, the cells were fixed with 2.5% formaldehyde, permeabilized with 0.1% Triton X-100 for 10 min at 4 °C, and incubated with 0.1 µg/mL rhodamine-conjugated phalloidin (Sigma-Aldrich) for 40 min. In all cases, coverslips were mounted using 20% (w/v) Mowiol, visualized with a Zeiss 510META-LSM microscope (Carl Zeiss), and z-series were collected at 0.20 µm intervals.
# Akt(S473) = test: Phospho-kinase array, RBL-2H3/ETFR cells; type: cell-based, rat; conditions: 10 nM fMLF plus 10 nM peptide, 10 min
# Experimental: (§2) RBL-2H3/ETFR grown to semi-confluence, were exposed to DMEM alone, 10 nM fMLF with/without 10 nM RI-3 at 37 °C in humidified air with 5% CO2. At the indicated times, cells were lysed in RIPA buffer and cell lysate protein content was measured by a colorimetric assay. Western blot analysis of AKT phosphorylation was performed as previously described using anti-phospho-Akt (Ser473) (pAKT) Ab (Cell Signaling) and anti-Akt mAb (R&D System). The effects of fMLF with/without 10 nM RI-3 were analyzed at the level of global kinase phosphorylation, using the dot-blot Proteome Profiler^TM Array Human PhosphoKinase Array Kit (R&D Systems), according to manufacturer’s instructions. Briefly, 300 µg of protein were applied on each membrane and the signals were detected as described for Western blot. The pixel density of each spot was measured using NIH Image 1.62 software. The intensity of positive control spots was used to normalize results between the four membranes. The intensity for each spot was then averaged over the duplicate spots.
# CREB(S133) = test: Phospho-kinase array, RBL-2H3/ETFR cells; type: cell-based, rat; conditions: 10 nM fMLF plus 10 nM peptide, 10 min
# Experimental: as §2
# FAK(Y397) = test: Phospho-kinase array, RBL-2H3/ETFR cells; type: cell-based, rat; conditions: 10 nM fMLF plus 10 nM peptide, 10 min
# Experimental: as §2
# p38α(T180/Y182) = test: Phospho-kinase array, RBL-2H3/ETFR cells; type: cell-based, rat; conditions: 10 nM fMLF plus 10 nM peptide, 10 min
# Experimental: as §2
# GFP-tagged Sarc cells = test: Growth and spread of subcutaneous GFP-tagged Sarc tumors in nude mice; type: in vivo, Foxn1nu/nu female nude mice; conditions: five mice per group
# Experimental: To evaluate the effect of RI-3 on tumor growth and vascularization, Sarc cells were injected, as a single-cell suspension (1 × 10^6 cells in 100 µl of sterile PBS, 97% viability), subcutaneously in the flanks of sixteen six-eight weeks old, Foxn1nu/nu female nude mice (Harlan). Animals were randomized into two 8-mice groups with the treatment group receiving 6 mg/kg RI-3 by intra-peritoneal injection every 24 hr, and the control group receiving an equivalent injected volume of vehicle (PBS) only. Time-dependent average weight was monitored every two days. The length and the width of tumors were measured at different time points with a calliper and volumes were calculated using the formula: ½ × (width)[2] × length (mm). After 10 days, blood samples (at least 500 µL/mouse) from the retro-orbital venous plexus of mice anesthetized with 1% isoflurane were collected using a heparinized capillary tube and processed for determination of the Circulating Tumor Cells (CTCs). Then, the animals were sacrificed, the excised tumors were fixed in buffered formalin and processed for paraffin sectioning. Tumor vascularization was assessed by counting vascular channels harbouring red blood cells on CD31 immuno-stained sections in 5 randomly chosen fields per section, in at least two sections per tumor at x 200 as described. Two additional experiments were carried out with the same experimental design by injecting GFP-tagged Sarc cells (1 × 10^6 cells/mouse) subcutaneously in the flanks of twenty-five six-eight weeks old, Foxn1nu/nu female nude mice (Harlan). Animals were treated with 6 mg/kg RI-3, 6 mg/kg RERF or vehicle by intra-peritoneal injection every 24 hr for 10 or 12 days. Tumor growth and the appearance of positive tumor lesions near tumors and in lungs were monitored as brightly visualized by GFP fluorescence with a MacroFluo fluorescence stereomicroscope (Leica). We searched for the presence of GFP-positive nodules on the entire surface of freshly isolated lungs. Lungs were also sliced at approximately 3-mm thickness to examine the parenchyma in depth, and the positive nodules were acquired at higher magnification.
substance,measurement,setting,value
Ac-[dY][dR][Aib][dR]-NH2 (SMILES CC(=O)N[C@H](Cc1ccc(O)cc1)C(=O)N[C@H](CCCNC(=N)N)C(=O)NC(C)(C)C(=O)N[C@H](CCCNC(=N)N)C(N)=O) [RI-3],reduction of matrigel invasion (slope of cell index),"HT1080 cells; HT1080, 10 nM, 10% FBS, 20 hr",64%
same,IC50,"HT1080 cells; increasing concentrations plus 10% FBS, matrigel invasion 20 hr, xCELLigence, read-out: concentration at which an overall 50% reduction of cell invasion was reached",0.01 nM
same,reduction of matrigel invasion (slope of cell index),[1],47%
same,effect on binding of FITC-fMLF to RBL-2H3/ETFR cells,FPR1 [2],prevented binding of FITC-fMLF to RBL-2H3/ETFR cells to a similar extent as compared to fMLF as well as RERF
same,effect on agonist-dependent FPR1 internalization,FPR1 [3],paucity of FPR1 internalization
same,reduction in fMLF-dependent phosphorylation of Akt(S473),Akt(S473),22%
same,reduction in fMLF-dependent phosphorylation of CREB(S133),CREB(S133),42%
same,reduction in fMLF-dependent phosphorylation of FAK(Y397),FAK(Y397),30%
same,reduction in fMLF-dependent phosphorylation of p38α(T180/Y182),p38α(T180/Y182),21%
same,changes in body weight,GFP-tagged Sarc cells; 6 mg/Kg i.p. every day for 12 days,did not cause changes in body weight
same,lungs with GFP-positive nodules (MacroFluo),"GFP-tagged Sarc cells; 6 mg/Kg i.p. every day for 12 days, untreated 3/5",negative
same,volume of tumors after 12 days,"GFP-tagged Sarc cells; 6 mg/Kg i.p. every day for 12 days, vehicle 678 +/− 169",381 +/− 123 mm^3
same,animals with subcutaneous GFP-positive lesions distant at least one centimeter from the primary tumors,"GFP-tagged Sarc cells; set-up experiment, 6 mg/Kg i.p. every day, sacrifice after 12 days, vehicle 4/5",2/5
